Test results reported in patent publication US5364615A (priority 1992, dated 1994).
Where “and” joins values, the source holds several entries; their conditions need not be identical. Equal values may be shown once. Entries after “also recorded” stand apart in the source; their conditions may differ. Read-outs that look alike come from different tables or passages of the source.

Key:
[1] = system: Pneumocystis carinii; assay: Post-exposure prophylaxis of PCP (Example 5); type: in vivo, human; conditions: for Percent Alive & Free of Relapse: 300 mg once per month
Text: Within 30 days of initiation of prophylaxis, ten patients were omitted due to treatment (9) or relapse (1). Of the 93 patients, 48 had had at least one previous episode of PCP. Two-thirds of the patients were taking AZT at the onset and throughout the duration of the post-exposure prophylaxis. The median and maximum duration of treatment at the time of analysis was 3.1 and 5.2 months.

[2] = system: Pneumocystis carinii; type: in vivo, human
[3] = Toxicity during PCP treatment (Example 1)
[4] = Serum pentamidine concentrations (Example 3); type: in vivo, human; conditions: aerosol
[5] = single 4 mg/kg intravenous dose, AIDS patients with P. carinii; cited from earlier work
[6] = type: in vivo, human
Text: Five patients who developed PCP within 28 days were not evaluated. One hundred (66%) of the patients were concurrently receiving AZT, and 42 (28%) had experienced one prior episode of PCP.

[7] = clinical; conditions: human, serum, inhaled or intranasal, 300 mg
Method: Adult patients having or suspected of having AIDS, and who were hospitalized for a fiberoptic bronchoscopy to evaluate diffuse infiltrates on chest radiographs, were studied. The patients were divided into two groups. […] Two patients had received one dose and the other three doses.
Eighteen to 24 hours later both groups underwent fiberoptic bronchoscopy. After inspection of the airways, 3-5 aliquots (20 mL) of normal saline were injected and aspirated from the right middle lobe until at least 40 mL was recovered: C. […] Lavage fluid was centrifuged at 1,000×g for 10 min at 10° C. […] Briefly, proteins were precipitated with acetonitrile containing hexamidine as an internal standard. […] The lower limit of sensitivity of the assay was 2-3 ng/mL. Two sample t-test was used to compare groups: p values of <0.05 were regarded as significant.

[8] = system: Pneumocystis carinii; assay: Prevention of PCP, different dosages and regimens (Example 6); type: in vivo, human
Text: A total of 438 participants were selected on the basis of seropositivity for HIV, and were stratified on the basis of (i) prior PCP (n=250), (ii) Kaposi's sarcoma (n=59), or (iii) ARC (n=129).

[9] = system: Pneumocystis carinii; conditions: human, in vivo
Text: The initial diagnosis of P. carinii pneumonia was based on finding the organism in induced sputum or bronchoalveolar lavage specimens.
Treatment was as described in Example 3.
(§1) Chest radiographs and arterial blood gas tensions were obtained as clinically indicated.

[10] = human, in vivo
Text: as §1

[11] = literature, cited from earlier work
[12] = Pentamidine concentrations in lavage fluid and plasma, HPLC (Example 1); type: in vivo, human
Method: For six inhalation patients (1, 4, 6, 7, 15, and 16) and five i.v. patients (2, 3, 5, 8, and 22), plasma samples were obtained at the completion of therapy and at 0.17, 0.5, 1, 1.5, 2, 2.5, 3, 4, 5, 6, 8, 10, 12, and 18 hours following initiation of therapy. For patients 9-14 and 17-21, trough and peak plasma samples were collected for the first three days, then weekly during therapy. Trough and peak samples were obtained on days 2, 3, 4, 5, 7, 11, and 13 for patient 2, days 2, 3, 4, 5, 7, and 12 for patient 3, days 2, 3, 4, 5, 13 and 18 for patient 5, and days 2, 3, 4, 5, and 11 for patient 8.

[13] = system: Pneumocystis carinii; conditions: cited from earlier work
[14] = system: Pneumocystis carinii; assay: Treatment of Pneumocystis carinii pneumonia, inhaled vs intravenous pentamidine (Example 1); type: in vivo, human
[15] = in vivo
[16] = 13 patients treated successfully
[17] = intravenous 4 mg/Kg, 18-24 h, per patient, 4 mg/kg

Question: What does the source list for `N=C(N)c1ccc(OCCCCCOc2ccc(C(=N)N)cc2)cc1` [pentamidine, p,p'-(pentamethylenedioxy)dibenzamidine]?
Answer: reduction in the incidence of PCP ([1]; 300 mg by inhalation once monthly, based on historical controls): 5 fold; Percent Alive & Free of Relapse ([1]; 0.0 months): 100.0%; Percent Alive & Free of Relapse ([1]; 2.3 months): 98.57%; Percent Alive & Free of Relapse ([1]; 2.5 months): 97.12%; Percent Alive & Free of Relapse ([1]; 2.9 months): 95.53%; Percent Alive & Free of Relapse ([1]; 3.0 months): 93.85%; Percent Alive & Free of Relapse ([1]; 3.1 months): 92.08%; Percent Alive & Free of Relapse ([1]; 3.7 months): 89.78%; Percent Alive & Free of Relapse ([1]; 5.2 months): 79.81%; delay of relapse ([1]; single prior episode of PCP): at least 5 months; observed PCP cases ([1]; single prior episode, vs 10 based on 132 historical controls, p<0.01): 3; relapse ([2]; 13 patients followed 2-4 months): No patient presented evidence of relapse; arterial oxygenation and vital capacity [2, 16]: Eleven of the 13 patients showed improvements of their arterial oxygenation and vital capacity; dyspnea, respiratory rate and fever [2, 16]: marked reduction in dyspnea, respiratory rate and fever; radiographic improvement [2, 16]: 4 had radiographic improvement beginning by the second week of therapy and Five patients showed worsened radiographic infiltrates at one week with subsequent improvement and remaining 4 patients had worsened radiographic infiltrates or no improvement for the first two weeks of therapy, then improvement; overall efficacy rate ([2]; 95% confidence limits, 58% to 98%): 87%; Pre therapy DLCO ([2]; baseline): 64.9 percent predicted; Pre therapy PaO2 ([2]; baseline): 67.9 torr; Pre therapy Vital Capacity ([2]; baseline): 50.8 percent predicted; subjective and objective improvement ([2]; human, in vivo): Thirteen of 15 patients had subjective and objective improvement; time of clinical improvement ([2]; human, in vivo): Ten patients had clinical improvement in the first week of therapy, and 3 patients during the second week of therapy; Successful Treatment W/ Change, % ([2]; n = 15): 93%; Successful Treatment w/o Change, % ([2]; n = 15): 86%; treatment failure / death ([2]; one patient with concomitant tuberculosis therapy, changed to TMP-SMX on day 7): died of progressive respiratory failure; Post therapy DLCO ([2]; post therapy): 61.7 percent predicted; Post therapy PaO2 ([2]; post therapy): 80.1 torr; Post therapy Vital Capacity ([2]; post therapy): 61.8 percent predicted; glucose ([3]; approximately 165 determinations): > 3.9 mmol/L; minor toxicity ([3]; inhalation): One inhalation patient (16) experienced minor toxicity (rash); major toxicity ([3]; inhalation, two of ten evaluable (neutropenia; both also received AZT)): 20%; minor toxicity ([3]; intravenous, elevated serum creatinine in three, depressed leukocyte count in one): occurred in four iv-treated patients; leukocyte count ([3]; intravenous, patient 18 after ten days): 6e+08 L⁻¹; major toxicity ([3]; intravenous, two of nine (neutropenia, hepatotoxicity)): 22%; change of therapy due to toxicity ([3]; iv-treated patients, two of 19 evaluated as printed): 11%; serum pentamidine concentration ([4]; 2 patients at end of therapy): 22 ng/mL and 32 ng/mL; serum pentamidine concentration ([4]; 12/14 patients): less than 10 ng/mL; mean peak serum pentamidine concentration [5]: 612 ng/mL; deaths associated with PCP ([6]; 3 of 146): 2%; deaths due to other causes ([6]; 9 of 146): 6%; patients died ([6]; twelve of 146 evaluable): 8%; concentration at 0.5 h [7]: 13 ng/mL; mortality rate ([8]; 372 participants): 1.6%; relapse rate ([8]; 372 participants, at least one treatment): 4.6%; deaths due to PCP ([8]; ARC, group a, 30 mg): 1; PCP Events ([8]; ARC, group a, 30 mg every two weeks): 2; PCP Events ([8]; ARC, group b, 150 mg every two weeks): 0; PCP Events ([8]; ARC, group c, 300 mg every four weeks): 0; PCP Events ([8]; Kaposi's, group a, 30 mg every two weeks): 0; PCP Events ([8]; Kaposi's, group b, 150 mg every two weeks): 1; PCP Events ([8]; Kaposi's, group c, 300 mg every four weeks): 0; relapse rate ([8]; at least three treatments): 3.2%; participants experiencing relapse ([8]; of 372 participants): 17; relapse rate ([8]; prior PCP, at least one treatment, historical controls 24.3%): 5.9%; relapse rate ([8]; prior PCP, three or more treatments): 4.2%; deaths due to PCP ([8]; prior PCP, group a, 30 mg): 1; PCP Events ([8]; prior PCP, group a, 30 mg every two weeks): 6; deaths due to PCP ([8]; prior PCP, group b, 150 mg): 3; PCP Events ([8]; prior PCP, group b, 150 mg every two weeks): 5; deaths due to PCP ([8]; prior PCP, group c, 300 mg): 1; PCP Events ([8]; prior PCP, group c, 300 mg every four weeks): 3; clinical response (hypoxia, fever, dyspnea, radiographs) [9]: none of the patients were hypoxic or febrile, all had improvement in dyspnea, and all had current or subsequent chest radiographs indicating roentrographic improvement of infiltrates; completion of therapy [9]: All patients successfully completed therapy; severe adverse reactions [10]: No patient developed any severe adverse reactions; Toxicity Req Change of Therapy, % [11]: 55%; rate of severe reactions ([11]; parenteral pentamidine, TMP-SMX): 50%; concentration at 288 h ([12]; human, bronchoalveolar lavage fluid, inhaled or intranasal, inhalation, patient 4, day 12, read-out: mean concentration in repeat lavage): 178 ± 28 ng/mL; concentration at 1656 h ([12]; human, bronchoalveolar lavage fluid, inhaled or intranasal, inhalation, patient 4, day 69 following completion of therapy, read-out: mean concentration in repeat lavage): 5.61 ± 0.78 ng/mL; concentration at 360 h ([12]; human, bronchoalveolar lavage fluid, inhaled or intranasal, inhalation, patient 6, day 15, read-out: mean concentration in repeat lavage): 63 ± 22 ng/mL; concentration at 360 h ([12]; human, bronchoalveolar lavage fluid, inhaled or intranasal, inhalation, patient 12, day 15, read-out: mean concentration in repeat lavage): 45.7 ± 0.9 ng/mL; concentration at 1128 h ([12]; human, bronchoalveolar lavage fluid, inhaled or intranasal, inhalation, patient 14, day 47, read-out: mean concentration in repeat lavage): 3 ± 0.5 ng/mL; concentration at 48 h ([12]; human, bronchoalveolar lavage fluid, iv, patient 2, day 2): 10.9 ± 2.9 ng/mL; concentration at 144 h ([12]; human, bronchoalveolar lavage fluid, iv, patient 5, day 6): 3.4 ± 0.2 ng/mL; Cmax ([12]; human, plasma, iv, read-out: maximum plasma concentration during remainder of therapy, mean): 497 ± 451 ng/mL; plasma samples without detectable drug ([12]; inhalation): approximately two-thirds of the plasma samples contained no detectable drug; lavage fluid concentration, inhalation vs iv ([12]; inhalation patients higher than iv-treated): approximately 10 fold; Plasma max during treatment ([12]; inhalation, highest concentration during remainder of therapy, per patient): 6.1 ng/mL and 21.8 ng/mL and 7.8 ng/mL and 5.0 ng/mL and 13.0 ng/mL and 45.4 ng/mL and 12.3 ng/mL and 6.9 ng/mL and 29.5 ng/mL and 11.5 ng/mL and 79.2 ng/mL and 23.2 ng/mL; Mean concentration in lavage fluid ([12]; inhalation, mean ± SD in (N) consecutive lavages, per patient): 55.3 ± 17.1 ng/mL and 28.6 ± 10 ng/mL and 66.8 ± 16 ng/mL and 30.6 ± 27.5 ng/mL and 16.8 ± 7.3 ng/mL and 49.1 ± 22.5 ng/mL and 149.7 ± 87.2 ng/mL and 92.4 ± 53.9 ng/mL; Plasma conc. on Day 1 ([12]; inhalation, peak during inhalation (patients 1, 4, 6, 7, 15, 16) or at end of inhalation (10-14, 17)): 0.0 ng/mL; Time to max conc. ([12]; inhalation, plasma, per patient): 5 days and 2 days and 1 days and 3 days and 14 days and 8 days; mean plasma concentration ([12]; intravenous, at completion of first infusion): 179 ± 185 ng/mL; Pre therapy DLCO ([13]; baseline, literature): 59.0 percent predicted; Pre therapy PaO2 ([13]; baseline, literature): 69.3 torr; Pre therapy Vital Capacity ([13]; baseline, literature): 70 percent predicted; Successful Treatment W/ Change, % ([13]; literature): 95%; Successful Treatment w/o Change, % ([13]; literature): 40%; Post therapy PaO2 ([13]; post therapy, literature (TMP-DPS: only 8 patients tested)): 87.2 torr; Post therapy DLCO ([13]; post therapy, literature): 62 percent predicted; Post therapy Vital Capacity ([13]; post therapy, literature): 80 percent predicted; Outcome of therapy ([14]; inhalation 4 mg/Kg, UltraVent, per patient): failed; also recorded: success; satisfactory response rate ([14]; inhalation therapy, evaluable patients): 90%; treatment failures ([14]; inhalation, 4 of 13 patients): 31%; responded satisfactorily ([14]; inhalation, 9 of 13 patients): 69%; Time to discharge ([14]; inhalation, all patients in group, based on 9 successful patients): 15 ± 1 days; satisfactory outcome (patients) ([14]; inhalation, of ten evaluated patients): nine had a satisfactory outcome; died in the hospital ([14]; inhalation, one patient): 7.7%; Time to discharge ([14]; inhalation, per patient (patient 9 died on day 9)): 27 days and 17 days and 16 days and 15 days and 14 days and 13 days; satisfactory outcome (patients) ([14]; intravenous): Eight of nine iv-treated patients exhibited a satisfactory outcome; Outcome of therapy ([14]; intravenous 3 mg/Kg, per patient, 3 mg/kg): success; also recorded: failed; Time to discharge ([14]; intravenous, based on 8 successful patients): 14 ± 2 days; responded satisfactorily ([14]; intravenous, eight of nine): 89%; relapse ([14]; intravenous, four patients followed five to six months): no reported relapses; Time to discharge ([14]; intravenous, per patient): 14 days and 12 days and 18 days and 13 days and 16 days; hypotension or dysglycemia [15]: no episodes of hypotension or dysglycemia; inhalation-associated cough [15]: Eight of thirteen patients (four of whom also experienced bronchospasm) had mild inhalation-associated cough; reversible bronchospasm [15]: occurred in five patients; BAL sediment concentration, aerosol vs intravenous (18-24 h): 10-100 fold; mean BAL supernatant (aerosol) vs BAL sediment (intravenous), factor (18-24 h): more than 2; BAL sediment concentration, Mean ± SEM (aerosol 300 mg, 18-24 h): 705 ± 242 ng/mL; BAL supernatant concentration, Mean ± SEM (aerosol 300 mg, 18-24 h): 23.2 ± 7.75 ng/mL; systemic absorption (after aerosol administration): Little or no systemic absorption was detectable; BAL sediment concentration, Mean ± SEM (intravenous 4 mg/Kg, 18-24 h): 9.34 ± 1.74 ng/mL; BAL supernatant concentration, Mean ± SEM (intravenous 4 mg/Kg, 18-24 h): 2.64 ± 0.73 ng/mL; BAL sediment concentration [17]: 12.8 ng/mL and 6.89 ng/mL and 8.35 ng/mL; BAL supernatant concentration [17]: 1.48 ng/mL and 2.44 ng/mL and 4.0 ng/mL; response to standard therapy (patients infected with P. carinii, either intravenous pentamidine or TMP-SMX): All patients infected with P. carinii responded to standard therapy
